Converted amounts (≈) assume the structure as drawn.
Assays:
[1] = tested on: MCF-7/HER2; assay: Cell viability MTT assay; assay type: cell-based; details: Homo sapiens, MCF7
Protocol: (§1) Cell viabilities of the three BC cell lines of MCF-7, MCF-7/HER2, and SKBR-3 treated with Tynen®, the LsbMDDs, DNS-LsbMDDs, and HER2-LsbMDDs were evaluated by an MTT assay. Cells were seeded at a density of 5 × 10^4 cells per well in 24-well plates and incubated for 24 h at 37 °C with 5% CO2. Then, they were treated with different concentrations of the formulations for 4 h under the same conditions. After incubation for 48 h, 50 μL of MTT (6 mg/mL) was added to each well for 3 h. The medium was removed and 200 μL of DMSO was added to each well and gently shaken to dissolve any purple formazan crystal formations. The absorbance of each well was measured at 550 nm (BioTek, Winooski, VT).

[2] = tested on: MCF-7; assay: Cell viability MTT assay; assay type: cell-based; details: Homo sapiens, MCF7
Protocol: as §1

- IC50 [1]: 0.052 µg/mL (≈ 0.0644 µM)
- IC50 [2]: 0.763 µg/mL (≈ 0.944 µM)
Structure (SMILES): CC(=O)O[C@@]12CO[C@@H]1C[C@H](O)[C@@]1(C)C(=O)[C@H](O)C3=C(C)[C@@H](OC(=O)[C@H](O)[C@@H](NC(=O)OC(C)(C)C)c4ccccc4)C[C@@](O)([C@@H](OC(=O)c4ccccc4)[C@H]21)C3(C)C [DTX, docetaxel]

Source: publication PMC6058516, “Bispecific antibodies (anti-mPEG/anti-HER2) for active tumor targeting of docetaxel (DTX)-loaded mPEGylated nanocarriers to enhance the chemotherapeutic efficacy of HER2-overexpressing tumors” (Drug Delivery, 2018)
